Series [1] has as its target α2β1 integrin (Homo sapiens, UniProt P05556+P17301). The experiment in a line: Cell adhesion assay. It is filed as cell-based. The note with it: for EC50: read-out: EC50 in cell adhesion assay; for Emax: concentration not given, read-out: Emax in cell adhesion assay.
In series [2] the target is α2β1 integrin (Homo sapiens, UniProt P17301). The experiment in a line: Cell adhesion assay. Type of series: cell-based.
The subject of the next series is PC-3 cells. The experiment in a line: Cell invasion assay: invasion of PC-3 cells through Matrigel. Type of series: cell-based. The conditions noted are these: Homo sapiens, 72 hours. From the text:
The overexpression regulates cell adhesion and migration to and invasion through the extracellular matrix. By blocking the interaction between extracellular matrix components like collagen and α2β1 it is possible to block cancer cell migration and invasion in vitro. Prostate cancer cells (PC-3) expressing α2β1 endogenously were used to test the in vitro anticancer potential of the inhibitors of the present invention.
Invasion of PC-3 cells (CRL-1435, ATCC) through Matrigel was studied using BD Biocoat invasion inserts (BD Biosciences). Inserts were stored at −20° C. Before the experiments inserts were allowed to adjust to the room temperature. 500 μl of serum free media (Ham's F12K medium, 2 mM L-glutamine, 1.5 g/l sodium bicarbonate) was added into the inserts and allowed to rehydrate at 37° C. in cell incubator for two hours. The remaining media was aspirated. PC-3 cells were detached, pelleted and suspended into serum free media (50 000 cells/500 μl). 300 μl of cell suspension was added into the insert in the absence (control) or presence of the inhibitor according to the pre-sent invention. Inserts were placed on the 24-well plates; each well containing 700 μl of cell culture media with 3% of fetal bovine serum as chemo-attractant. Cells were allowed to invade for 72 hours at 37° C. in cell incubator. Inserts were washed with 700 μl PBS, and fixed with 4% paraformaldehyde for 10 minutes. Paraformaldehyde was aspirated and cells were washed with 700 μl of PBS and inserts were stained by incubation with hematoxylin for 1 minute. The stain was removed by washing the inserts with 700 μl of PBS. Inserts were allowed to dry. Fixed invaded cells were calculated under the microscope. Invasion % was calculated as a comparison to the control.
Cell invasion assay is used as an in vitro cancer metastatis model. […] Some structures inhibit invasion even with submicromolar concentrations. […] In FIG. 2, the dose response of compound 161 in invasion assay is shown. Compound 161 gave the best EC50 value (0.3 μM) in invasion assay. Invasion assay was done with human prostata cancer cell line, PC-3.

Setting [3] is: read-out: EC50 in invasion assay.

Where two headings read alike, the source gives them in different places. Some results are limits rather than exact numbers.

What is called EC50 is the midpoint of the concentration-response curve. As usually defined, the melting point is the temperature of the solid-liquid transition. By Emax is commonly meant the greatest response seen or fitted, relative to the assay's reference.

α2β1 integrin (Homo sapiens, UniProt P05556+P17301), sequence (P17301 30-1181): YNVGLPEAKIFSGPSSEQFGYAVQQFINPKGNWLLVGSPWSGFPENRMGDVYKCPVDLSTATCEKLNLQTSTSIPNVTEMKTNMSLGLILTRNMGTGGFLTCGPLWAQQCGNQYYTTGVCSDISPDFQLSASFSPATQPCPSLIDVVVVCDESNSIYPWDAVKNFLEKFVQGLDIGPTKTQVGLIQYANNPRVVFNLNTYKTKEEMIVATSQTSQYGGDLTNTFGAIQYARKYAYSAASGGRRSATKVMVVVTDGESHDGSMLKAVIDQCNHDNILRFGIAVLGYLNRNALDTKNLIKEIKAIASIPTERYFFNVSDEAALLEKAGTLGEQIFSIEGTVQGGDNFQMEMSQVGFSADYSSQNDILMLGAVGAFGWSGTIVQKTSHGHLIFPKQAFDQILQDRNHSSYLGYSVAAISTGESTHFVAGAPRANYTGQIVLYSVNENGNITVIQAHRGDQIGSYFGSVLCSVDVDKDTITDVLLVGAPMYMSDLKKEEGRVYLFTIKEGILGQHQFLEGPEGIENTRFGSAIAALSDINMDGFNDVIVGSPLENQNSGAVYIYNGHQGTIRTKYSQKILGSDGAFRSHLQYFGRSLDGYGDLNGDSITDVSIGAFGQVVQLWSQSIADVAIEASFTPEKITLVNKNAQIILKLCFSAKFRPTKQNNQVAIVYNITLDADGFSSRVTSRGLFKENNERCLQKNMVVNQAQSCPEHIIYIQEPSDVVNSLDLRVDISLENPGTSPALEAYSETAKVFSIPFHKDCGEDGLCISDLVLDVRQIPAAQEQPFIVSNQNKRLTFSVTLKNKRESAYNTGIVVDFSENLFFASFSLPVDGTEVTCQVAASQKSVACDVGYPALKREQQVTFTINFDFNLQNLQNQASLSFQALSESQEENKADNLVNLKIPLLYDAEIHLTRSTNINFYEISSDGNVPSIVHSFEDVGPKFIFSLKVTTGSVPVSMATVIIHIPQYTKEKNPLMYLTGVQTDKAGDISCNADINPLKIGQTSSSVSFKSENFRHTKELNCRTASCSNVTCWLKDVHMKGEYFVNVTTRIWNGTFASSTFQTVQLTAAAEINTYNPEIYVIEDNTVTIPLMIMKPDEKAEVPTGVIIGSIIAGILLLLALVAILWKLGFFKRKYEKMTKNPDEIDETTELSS
α2β1 integrin (Homo sapiens, UniProt P05556+P17301), sequence (P05556 21-798 partner): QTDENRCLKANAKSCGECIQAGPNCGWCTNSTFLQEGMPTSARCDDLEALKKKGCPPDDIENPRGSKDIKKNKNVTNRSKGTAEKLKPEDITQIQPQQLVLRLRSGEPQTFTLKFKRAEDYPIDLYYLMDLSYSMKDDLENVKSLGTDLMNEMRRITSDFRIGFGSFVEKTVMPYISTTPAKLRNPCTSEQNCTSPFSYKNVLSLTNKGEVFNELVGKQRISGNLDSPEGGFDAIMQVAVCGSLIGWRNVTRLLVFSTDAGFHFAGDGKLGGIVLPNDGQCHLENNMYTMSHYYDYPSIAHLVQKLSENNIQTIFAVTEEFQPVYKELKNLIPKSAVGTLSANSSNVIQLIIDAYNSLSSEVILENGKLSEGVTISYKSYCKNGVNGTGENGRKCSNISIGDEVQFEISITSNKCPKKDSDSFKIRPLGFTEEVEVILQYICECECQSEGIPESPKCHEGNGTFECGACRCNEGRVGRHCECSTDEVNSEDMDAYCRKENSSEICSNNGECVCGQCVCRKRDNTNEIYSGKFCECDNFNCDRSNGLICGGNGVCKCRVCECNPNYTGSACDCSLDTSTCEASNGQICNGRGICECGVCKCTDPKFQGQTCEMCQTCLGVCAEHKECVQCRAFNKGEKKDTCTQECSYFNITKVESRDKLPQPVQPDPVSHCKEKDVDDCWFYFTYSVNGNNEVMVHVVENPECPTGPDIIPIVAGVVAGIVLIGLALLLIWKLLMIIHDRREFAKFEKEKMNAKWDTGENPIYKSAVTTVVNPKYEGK
α2β1 integrin (Homo sapiens, UniProt P17301), sequence (P17301 30-1181): as the sequence (P17301 30-1181) above
α2β1 integrin (Homo sapiens, UniProt P17301), sequence (P05556 21-798 partner): as the sequence (P05556 21-798 partner) above

For the compound `COc1ccc(-c2cccc(S(=O)(=O)Nc3ccc(N(C)C)cc3)c2)cc1OC` [Compound 102, 3′,4′-dimethoxy-biphenyl-3-sulphonic acid (4-dimethylamino-phenyl)-amide], the melting point is 43 °C. The EC50 on α2β1 integrin [1] was found to be 13 µM. In addition, the “Emax in cell adhesion assay” value on α2β1 integrin [2] (concentration not given) was found to be 65%.
Turning to `CN(C)c1ccc(NS(=O)(=O)c2cccc(-c3ccc(F)cc3)c2)cc1` [Compound 119, N-[4-(dimethylamino)phenyl]-4′-fluoro-1,1′-biphenyl-3-sulphonamide], the melting point is 158 to 160 °C. At α2β1 integrin [1], the Emax worked out at 70% and the EC50 is 3 µM.
Turning to `Cc1cc2cc(NS(=O)(=O)c3ccc(Cl)cc3Cl)ccc2[nH]1` [Compound 131, 2,4-dichloro-N-(2-methyl-1H-indol-5-yl)-benzenesulfonamide], the EC50 in the series on PC-3 cells (setting [3]) is not above 1 µM. For the same compound, at α2β1 integrin [1], the Emax came to 58% and the EC50 is 25 µM.
For the compound `O=S(=O)(Nc1ccc2cc[nH]c2c1)c1ccc(Cl)cc1Cl` [Compound 161, 2,4-dichloro-N-(1H-indol-6-yl)-benzenesulfonamide], the EC50 was 0.3 µM in the series on PC-3 cells (dose response FIG. 2, read-out: EC50 value in invasion assay); not above 1 µM with PC-3 cells (setting [3]); 34 µM on α2β1 integrin [1]. For the same compound, the Emax on α2β1 integrin [1] turned out to be 82%.
For `COc1ccc(-c2cnn(-c3ccc(NS(=O)(=O)c4ccc(Cl)cc4)cc3)c2)cc1` [Compound 176], the EC50 with PC-3 cells (setting [3]) is not above 1 µM; on α2β1 integrin [1] it was 17 µM. This compound also yielded an Emax at 50 µM on α2β1 integrin [1] of 59%.
Regarding `Cc1cc(C)nc(Nc2ccc(NS(=O)(=O)c3cccc(Br)c3)cc2)n1` [Compound 183], the EC50 with PC-3 cells (setting [3]) is not above 1 µM. Moreover, on α2β1 integrin [1], the Emax came out at 81% and the concentration giving a half-maximal response (EC50) turned out to be 28 µM.
`Cc1[nH]c2ccc(NS(=O)(=O)c3ccc(Cl)cc3Cl)cc2c1C` [Compound 210] yielded an Emax at 50 µM at α2β1 integrin [1] of 80%. Moreover, on α2β1 integrin [2], the “EC50 in cell adhesion assay” value was “dd could not be detected”.
With `Cc1cc(F)ccc1-c1cccc(S(=O)(=O)Nc2ccc(N(C)C)cc2)c1` [Compound 222, N-[4-(dimethylamino)phenyl]-4′-fluoro-2′-methyl-1,1′-biphenyl-3-sulfonamide], the EC50 with PC-3 cells (setting [3]) was not above 1 µM. Besides, on α2β1 integrin [1], the Emax came to 66% and the half-maximal effective concentration (EC50) came out at 15 µM.
For the compound `CC(=O)c1ccc(-c2cccc(S(=O)(=O)Nc3ccc(N(C)C)cc3)c2)s1` [Compound 239, 3-(5-acetylthien-2-yl)-N-[4-(dimethylamino)phenyl]benzenesulfonamide], the 50% effective concentration (EC50) with PC-3 cells (setting [3]) is not above 1 µM. On α2β1 integrin [1], the Emax at 50 µM was 64% and the EC50 was 24 µM.
With `Cc1cc2cc(N(C)S(=O)(=O)c3ccc(Cl)cc3Cl)ccc2n1C` [Compound 242, 2,4-dichloro-N-(1,2-dimethyl-1H-indol-5-yl)-N-methyl-benzenesulfonamide], the EC50 in the series on PC-3 cells (setting [3]) is not above 1 µM. Besides, on α2β1 integrin [1], the Emax amounted to 70% and the EC50 worked out at 6 µM.
With `CN(C)c1ccc(N(C)S(=O)(=O)c2cccc(Br)c2)cc1` [Compound 281], the EC50 with PC-3 cells (setting [3]) was not above 1 µM. At α2β1 integrin [1], the Emax came out at 78% and the EC50 amounted to 47 µM.
With `Cn1ccc2cc(NS(=O)(=O)c3cccc(-c4ccc(F)cc4)c3)ccc21` [Compound 285, 4′-fluoro-biphenyl-3-sulfonic acid (1-methyl-1H-indol-5-yl)-amide], the EC50 with PC-3 cells (setting [3]) was not above 1 µM; at α2β1 integrin [1], 20 µM. The compound further had an Emax at 50 µM on α2β1 integrin [1] of 60%.
As for `Cc1cc(C)n(-c2ccc(NS(=O)(=O)c3cccc(-c4ccc(F)cc4)c3)cc2)n1` [Compound 298], the EC50 with PC-3 cells (setting [3]) is not above 1 µM. Besides, on α2β1 integrin [1], the Emax was found to be 79% and the EC50 was determined as 33 µM.
For the compound `Cc1cc(F)ccc1-c1ccc(S(=O)(=O)Nc2ccc(N(C)C)cc2)s1` [Compound 307], on α2β1 integrin [1], the Emax at 50 µM was found to be 67% and the EC50 came out at 20 µM.
Consider `CN(C)c1ccc(NS(=O)(=O)c2cc(-c3ccc(F)cc3)c(Cl)s2)cc1` [Compound 316, 5-chloro-4-(4-fluoro-phenyl)-thiophene-2-sulfonic acid (4-dimethylamino-phenyl)-amide], for which, on α2β1 integrin [1], the Emax at 50 µM is 87% and the EC50 came to 10 µM.
Take `CN(C)c1ccc(NS(=O)(=O)c2cc(-c3ccc(F)cc3)c(-c3ccc(F)cc3)s2)cc1` [Compound 317]: at α2β1 integrin [1], the Emax is 45% and the EC50 was found to be 44 µM.
For the compound `CN(c1ccc2c(c1)c1ccccc1n2C)S(=O)(=O)c1ccc(Cl)cc1Cl` [Compound 320], on α2β1 integrin [1], the Emax amounted to 45% and the EC50 amounted to 10 µM.
`Cc1cc(F)ccc1-c1cccc(S(=O)(=O)N(C)c2ccc(N(C)C)cc2)c1` [Compound 321]: on α2β1 integrin [1], the Emax came out at 55% and the concentration giving a half-maximal response (EC50) was 6.3 µM.

For the origin of these results see patent US20080255169A1 (priority 2004, published 2008).
